According to article PMC524646 (Journal of Insect Science, 2003):

Tests used:
[1] = molecular target: T1, Ecdysteroid receptor complexes extracted from BII cells (Drosophila melanogaster, UniProt P34021); assay: Cell-free receptor assay with receptor complexes extracted from BII cells; assay type: binding; conditions: ratio of Kd in cell-free BII extract to EC50 in BII bioassay
T1 sequence (P34021 1-878): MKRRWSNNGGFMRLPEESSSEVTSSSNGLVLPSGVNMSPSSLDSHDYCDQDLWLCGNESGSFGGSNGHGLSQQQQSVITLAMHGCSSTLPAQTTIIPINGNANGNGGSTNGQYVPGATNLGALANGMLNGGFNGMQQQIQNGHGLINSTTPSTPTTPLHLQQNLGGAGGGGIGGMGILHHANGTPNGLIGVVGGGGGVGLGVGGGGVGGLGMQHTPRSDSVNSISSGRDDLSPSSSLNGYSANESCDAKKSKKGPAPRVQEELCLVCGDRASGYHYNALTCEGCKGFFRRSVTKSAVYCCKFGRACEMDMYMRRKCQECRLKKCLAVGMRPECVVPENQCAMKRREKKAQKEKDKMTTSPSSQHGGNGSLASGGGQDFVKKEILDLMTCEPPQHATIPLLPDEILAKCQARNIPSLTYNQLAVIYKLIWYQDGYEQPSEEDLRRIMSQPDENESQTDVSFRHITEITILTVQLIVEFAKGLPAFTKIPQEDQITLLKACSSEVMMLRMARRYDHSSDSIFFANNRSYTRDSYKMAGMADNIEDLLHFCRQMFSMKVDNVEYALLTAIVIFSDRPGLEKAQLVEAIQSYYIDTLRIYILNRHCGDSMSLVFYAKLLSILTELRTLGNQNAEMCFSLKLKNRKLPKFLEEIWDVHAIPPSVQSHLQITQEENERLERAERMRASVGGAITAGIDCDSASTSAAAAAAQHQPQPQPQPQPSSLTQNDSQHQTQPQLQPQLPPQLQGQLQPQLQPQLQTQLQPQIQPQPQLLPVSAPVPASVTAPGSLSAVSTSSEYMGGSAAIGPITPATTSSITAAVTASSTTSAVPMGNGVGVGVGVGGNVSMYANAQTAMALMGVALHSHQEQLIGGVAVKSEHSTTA
T1 sequence (P20153 1-508 partner): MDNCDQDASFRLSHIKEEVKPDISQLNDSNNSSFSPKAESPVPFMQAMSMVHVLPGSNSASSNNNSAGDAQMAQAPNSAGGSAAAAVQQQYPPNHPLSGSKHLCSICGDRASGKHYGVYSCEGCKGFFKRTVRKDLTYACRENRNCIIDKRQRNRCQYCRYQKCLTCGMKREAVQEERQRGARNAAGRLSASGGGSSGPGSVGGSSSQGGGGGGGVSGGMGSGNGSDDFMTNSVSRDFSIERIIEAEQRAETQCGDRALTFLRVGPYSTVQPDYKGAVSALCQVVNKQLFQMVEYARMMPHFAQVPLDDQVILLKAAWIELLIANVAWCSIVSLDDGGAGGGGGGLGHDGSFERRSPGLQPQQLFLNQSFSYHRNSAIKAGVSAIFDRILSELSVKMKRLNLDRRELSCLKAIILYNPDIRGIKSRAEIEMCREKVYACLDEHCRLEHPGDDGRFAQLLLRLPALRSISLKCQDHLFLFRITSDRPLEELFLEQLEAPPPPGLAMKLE

BII cells = conditions: ref Dinan, 1985; cited from earlier work
[2] = test system: insect EcR proteins when expressed in mammalian cells and partnered by RXR; conditions: altered ligand specificity and affinity; no reference given; cited from earlier work
[3] = assay type: physicochemical; conditions: after attempted synthesis

Row | SMILES | Kd/EC50 [1] | also measured
1 | CC(C)(O)CC[C@@H](O)[C@](C)(O)[C@H]1CC[C@@]2(O)C3=CC(=O)[C@@H]4C[C@@H](O)[C@@H](O)C[C@]4(C)[C@H]3[C@H](O)C[C@]12C [compound 1, turkesterone] | very low | 
2 | CC(C)(O)CC[C@@H](O)[C@](C)(O)[C@H]1CC[C@@]2(O)C3=CC(=O)[C@@H]4C[C@@H](O)[C@@H](O)C[C@]4(C)[C@H]3CC[C@]12C [compound 6, 20-hydroxyecdysone] |  | metabolism by BII cells (BII cells): do not metabolise
3 | CC(C)CC[C@@H](O)[C@](C)(O)[C@H]1CC[C@@]2(O)C3=CC(=O)[C@@H]4C[C@@H](O)[C@@H](O)C[C@]4(C)[C@H]3[C@H](O)C[C@]12C [compound 8, ajugasterone C] | very low | 
4 | CC(C)CC[C@@H](O)[C@](C)(O)[C@H]1CC[C@@]2(O)C3=CC(=O)[C@]4(O)C[C@@H](O)[C@@H](O)C[C@]4(C)[C@H]3[C@H](O)C[C@]12C [compound 9, muristerone A] | very low | activity with insect EcR/RXR in mammalian cells [2]: active, but micromolar concentrations are required
5 | CC(C)(O)CC[C@@H](O)[C@](C)(O)[C@H]1CC[C@@]2(O)C3=CC(=O)[C@@H]4C[C@@H](O)[C@@H](O)C[C@]4(C)[C@H]3[C@H](OC(=O)c3ccccc3)C[C@]12C [turkesterone 11α-benzoate] |  | stability of product [3]: unstable, degrading rapidly back to turkesterone
